Each block holds one compound with its values, some of them ahead of it.
What was measured:
[1] = Solid stability test (long-term and accelerated lofting); type: physicochemical
Description: Each sample was separately put into a double-layer LDPE bag with each layer of LDPE bag sealed by a binding buckle. The bag was then put into an aluminum foil bag for heat sealing, and then put into a stability box under corresponding conditions for observation.

[2] = Hygroscopicity by dynamic vapor sorption (DVS); type: physicochemical
Description: SMS DVS intrinsic dynamic vapor sorption instrument

[3] = biological target: T1, MNK2 (h) protein kinase (Homo sapiens, UniProt Q9HBH9); assay: Inhibitory activity against MNK2 protein kinase (KinaseProfiler, 33P-ATP filter-binding); type: biochemical; conditions: myelin basic protein substrate, 40 min at room temperature
T1 construct: purchased Eurofins Pharma Discovery Services UK Limited (KinaseProfiler service)
T1 sequence (Q9HBH9 whole entry): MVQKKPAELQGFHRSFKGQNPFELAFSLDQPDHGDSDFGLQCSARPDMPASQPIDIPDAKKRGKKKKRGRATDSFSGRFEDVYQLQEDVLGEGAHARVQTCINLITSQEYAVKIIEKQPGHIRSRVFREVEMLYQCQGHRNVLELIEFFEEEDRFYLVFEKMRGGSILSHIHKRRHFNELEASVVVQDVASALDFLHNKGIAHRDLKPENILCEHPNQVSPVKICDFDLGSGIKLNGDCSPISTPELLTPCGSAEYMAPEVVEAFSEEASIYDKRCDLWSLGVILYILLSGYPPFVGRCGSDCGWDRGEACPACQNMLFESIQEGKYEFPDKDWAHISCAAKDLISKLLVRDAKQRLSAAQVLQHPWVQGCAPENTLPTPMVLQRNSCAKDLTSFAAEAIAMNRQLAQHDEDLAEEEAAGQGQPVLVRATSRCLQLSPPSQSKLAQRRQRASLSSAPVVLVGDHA
Procedure: Purpose of experiment: to test the inhibitory activity of the compound against MNK2 protein kinase Experimental materials: assay buffer: 8 mM 3-(N-morpholino)propanesulfonic acid, 0.2 mM disodium ethylenediaminetetraacetate, 0.01% polyoxyethylene lauryl ether, 5% glycerol, 0.1% β-mercaptoethanol and 1 mg of bovine serum albumin
Experimental operation: Mnk2 protein kinase inhibitory activity assays were performed using the KinaseProfiler™ service from Eurofins Pharma Discovery Services UK Limited. Serially diluted DMSO solutions containing the compound to be tested (3-fold serial dilution, starting from 10 μM), MNK2 (h) protein kinase and 0.33 mg/mL myelin basic protein were added to a freshly prepared buffer (pH=7.0), and then stirred homogeneously. The reaction was initiated by adding a mixture of ^33P-ATP (intensity of radioactivity: 10 μCi/μL) and 10 mM magnesium acetate. After the resulting mixture was reacted at room temperature for 40 min, the reaction was terminated by adding phosphoric acid to dilute to a concentration of 0.5%. […] After drying, the intensity of radioactivity was determined using the Filter-Binding method.
The protein kinase inhibitory activity of the compound was expressed as a percentage of the residual protein kinase activity relative to the blank substrate (DMSO alone). […]

[4] = Crystal form screening / stability in different solvents; type: physicochemical; conditions: stirred at 50° C. for 3 h, XRPD
Procedure: About 50 mg of the compound of formula (II) was weighed out separately and dissolved in different solvents, the mixtures were stirred at 50° C. for 3 h. The reaction liquids were cooled to room temperature, filtered for collection, and dried in vacuum, and the obtained solids were tested by XRPD.

Crystal form ([1]; 25° C./60% RH, 12 months): Crystal form A | Crystal form ([1]; 25° C./60% RH, Day 0): Crystal form A | Crystal form ([1]; 40° C./75% RH, 6 months): Crystal form A | Crystal form ([1]; 40° C./75% RH, Day 0): Crystal form A | hygroscopic weight gain ΔW ([2]; 25° C. and 80% RH, DVS): 1.179% | hygroscopicity (in words) ([2]; 25° C. and 80% RH, DVS): relatively weak hygroscopicity | crystal form before and after the hygroscopic test ([2]; DVS 0%~95%~0% RH, 25° C.): not changed
SMILES: Cc1cc(Nc2ncnn3cc(OCCN4CCC(F)(F)C4)c(C)c23)c(=O)n2c1C(=O)NC21CCCC1

IC50 [3]: 17 nM
SMILES: Cc1cc(Nc2ncnn3cc(OCCN4CCC(F)(F)C4)c(C)c23)c(=O)n2c1C(=O)NC21CCCC1 [Compound of formula (I)]

Crystal form ([4]; Acetonitrile): Crystal form A | Crystal form ([4]; Ethanol): Crystal form B | Crystal form ([4]; Methanol): Crystal form A | Crystal form ([4]; n-Heptane): Crystal form B | Crystal form ([4]; tert-Butyl methyl ether): Crystal form A
SMILES: Cc1cc(Nc2ncnn3cc(OCCN4CCC(F)(F)C4)c(C)c23)c(=O)n2c1C(=O)NC21CCCC1 [compound of formula (II)]

Reference: patent US20240254144A1, “SALT FORM OF PYRROLOTRIAZINE COMPOUND, CRYSTAL FORM THEREOF, AND PREPARATION METHOD THEREFOR” (JUMBO DRUG BANK CO., LTD., priority 2021, published 2024)
